Assays:
[1] = target: T1, Mitogen-activated protein kinase 10 (Homo sapiens, UniProt P53779); experiment: Inhibition of N-terminal His(6)-tagged truncated human JNK3 transfected in baculovirus expression system by fluorescence anisotropy
[2] = target: T2, Mitogen-activated protein kinase 14 (Homo sapiens, UniProt Q16539); experiment: Inhibition of histidine-tagged human recombinant p38alpha after 120 mins by TR-FRET assay
[3] = target: T3, Mitogen-activated protein kinase 8 (Homo sapiens, UniProt P45983); experiment: Inhibition of JNK1 by high throughput screening
T3 sequence (P45983 whole entry): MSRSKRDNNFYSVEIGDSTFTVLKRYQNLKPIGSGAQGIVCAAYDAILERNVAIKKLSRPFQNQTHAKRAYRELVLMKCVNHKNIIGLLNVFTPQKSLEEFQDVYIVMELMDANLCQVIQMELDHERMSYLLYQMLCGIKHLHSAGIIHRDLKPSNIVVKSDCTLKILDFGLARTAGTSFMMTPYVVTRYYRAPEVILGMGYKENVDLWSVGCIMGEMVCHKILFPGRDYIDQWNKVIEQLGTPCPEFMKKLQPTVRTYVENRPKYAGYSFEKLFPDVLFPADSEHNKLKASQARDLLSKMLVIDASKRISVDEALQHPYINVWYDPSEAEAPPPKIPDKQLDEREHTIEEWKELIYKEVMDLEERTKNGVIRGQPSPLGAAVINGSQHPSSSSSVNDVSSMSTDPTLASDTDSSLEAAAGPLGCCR

[4] = target: T1, Mitogen-activated protein kinase 10; experiment: Inhibition of JNK3 by high throughput screening
[5] = target: T2, Mitogen-activated protein kinase 14; experiment: Inhibition of p38alpha by high throughput screening
[6] = target: T2, Mitogen-activated protein kinase 14; experiment: Inhibition of N-terminal GST-tagged p38alpha expressed in Escherichia coli by fluorescence anisotropy
[7] = target: Mitogen-activated protein kinase 9 (Homo sapiens, UniProt P45984); experiment: Inhibition of N-terminal histidine-tagged human full length JNK2-alpha-2 by radiometric filter binding assay
Sequence of Mitogen-activated protein kinase 9 (P45984 whole entry): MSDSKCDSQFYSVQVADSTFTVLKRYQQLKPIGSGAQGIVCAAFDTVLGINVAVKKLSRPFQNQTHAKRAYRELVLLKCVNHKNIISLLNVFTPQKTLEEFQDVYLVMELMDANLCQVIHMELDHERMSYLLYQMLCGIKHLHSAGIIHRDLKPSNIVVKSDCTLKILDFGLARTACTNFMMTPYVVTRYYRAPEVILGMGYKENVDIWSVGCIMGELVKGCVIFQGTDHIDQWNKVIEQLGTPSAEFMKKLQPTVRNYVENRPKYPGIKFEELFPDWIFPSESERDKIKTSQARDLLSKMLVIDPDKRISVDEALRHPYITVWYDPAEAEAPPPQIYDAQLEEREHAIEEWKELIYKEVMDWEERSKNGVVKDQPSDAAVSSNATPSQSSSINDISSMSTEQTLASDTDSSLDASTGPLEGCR

[8] = target: T3, Mitogen-activated protein kinase 8; experiment: Inhibition of N-terminal histidine-tagged human full length JNK1-alpha-1 by radiometric filter binding assay
[9] = target: T1, Mitogen-activated protein kinase 10; experiment: Inhibition of N-terminal histidine-tagged human full length JNK3 by radiometric filter binding assay
[10] = target: Mitogen-activated protein kinase 1 (Homo sapiens, UniProt P28482); experiment: Inhibition of N-terminal GST-tagged human full length Erk2 by radiometric filter binding assay
Sequence of Mitogen-activated protein kinase 1 (P28482 whole entry): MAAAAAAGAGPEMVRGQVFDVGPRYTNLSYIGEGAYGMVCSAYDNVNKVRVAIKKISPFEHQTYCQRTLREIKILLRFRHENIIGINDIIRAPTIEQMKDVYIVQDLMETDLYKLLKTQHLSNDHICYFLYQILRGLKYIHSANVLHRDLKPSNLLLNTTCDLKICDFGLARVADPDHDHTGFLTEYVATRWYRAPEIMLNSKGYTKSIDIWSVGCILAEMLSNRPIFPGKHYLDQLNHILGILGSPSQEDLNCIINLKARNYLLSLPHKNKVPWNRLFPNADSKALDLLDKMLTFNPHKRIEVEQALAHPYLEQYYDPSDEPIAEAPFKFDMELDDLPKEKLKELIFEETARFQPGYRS

[11] = target: Serine/threonine-protein kinase B-raf (Homo sapiens, UniProt P15056); experiment: Inhibition of B-Raf
Sequence of Serine/threonine-protein kinase B-raf (P15056 whole entry): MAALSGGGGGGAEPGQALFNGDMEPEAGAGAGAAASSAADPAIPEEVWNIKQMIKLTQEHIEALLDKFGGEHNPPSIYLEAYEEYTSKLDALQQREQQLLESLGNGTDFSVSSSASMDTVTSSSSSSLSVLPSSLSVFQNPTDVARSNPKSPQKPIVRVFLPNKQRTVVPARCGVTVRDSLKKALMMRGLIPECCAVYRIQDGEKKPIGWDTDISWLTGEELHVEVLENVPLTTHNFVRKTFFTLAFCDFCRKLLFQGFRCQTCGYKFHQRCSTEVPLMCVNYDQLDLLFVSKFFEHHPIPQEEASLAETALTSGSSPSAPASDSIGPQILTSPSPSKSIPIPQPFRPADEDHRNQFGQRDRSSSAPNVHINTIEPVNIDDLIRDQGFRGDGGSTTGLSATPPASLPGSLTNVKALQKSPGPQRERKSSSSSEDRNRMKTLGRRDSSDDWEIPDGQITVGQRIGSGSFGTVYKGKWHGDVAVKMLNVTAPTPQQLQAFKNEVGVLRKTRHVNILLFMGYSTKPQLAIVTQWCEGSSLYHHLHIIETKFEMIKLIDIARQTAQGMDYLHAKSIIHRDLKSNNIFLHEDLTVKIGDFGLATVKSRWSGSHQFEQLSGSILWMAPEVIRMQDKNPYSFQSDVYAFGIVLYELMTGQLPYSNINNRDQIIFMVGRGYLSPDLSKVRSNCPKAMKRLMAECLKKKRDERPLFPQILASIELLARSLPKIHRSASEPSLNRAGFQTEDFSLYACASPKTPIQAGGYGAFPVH

[12] = target: Macrophage colony-stimulating factor 1 receptor (Homo sapiens, UniProt P07333); experiment: Inhibition of c-Fms
[13] = target: Cyclin-dependent kinase 2 (Homo sapiens, UniProt P24941); experiment: Inhibition of CDK2
[14] = target: Receptor tyrosine-protein kinase erbB-2 (Homo sapiens, UniProt P04626); experiment: Inhibition of ErbB2
Sequence of Receptor tyrosine-protein kinase erbB-2 (P04626 whole entry): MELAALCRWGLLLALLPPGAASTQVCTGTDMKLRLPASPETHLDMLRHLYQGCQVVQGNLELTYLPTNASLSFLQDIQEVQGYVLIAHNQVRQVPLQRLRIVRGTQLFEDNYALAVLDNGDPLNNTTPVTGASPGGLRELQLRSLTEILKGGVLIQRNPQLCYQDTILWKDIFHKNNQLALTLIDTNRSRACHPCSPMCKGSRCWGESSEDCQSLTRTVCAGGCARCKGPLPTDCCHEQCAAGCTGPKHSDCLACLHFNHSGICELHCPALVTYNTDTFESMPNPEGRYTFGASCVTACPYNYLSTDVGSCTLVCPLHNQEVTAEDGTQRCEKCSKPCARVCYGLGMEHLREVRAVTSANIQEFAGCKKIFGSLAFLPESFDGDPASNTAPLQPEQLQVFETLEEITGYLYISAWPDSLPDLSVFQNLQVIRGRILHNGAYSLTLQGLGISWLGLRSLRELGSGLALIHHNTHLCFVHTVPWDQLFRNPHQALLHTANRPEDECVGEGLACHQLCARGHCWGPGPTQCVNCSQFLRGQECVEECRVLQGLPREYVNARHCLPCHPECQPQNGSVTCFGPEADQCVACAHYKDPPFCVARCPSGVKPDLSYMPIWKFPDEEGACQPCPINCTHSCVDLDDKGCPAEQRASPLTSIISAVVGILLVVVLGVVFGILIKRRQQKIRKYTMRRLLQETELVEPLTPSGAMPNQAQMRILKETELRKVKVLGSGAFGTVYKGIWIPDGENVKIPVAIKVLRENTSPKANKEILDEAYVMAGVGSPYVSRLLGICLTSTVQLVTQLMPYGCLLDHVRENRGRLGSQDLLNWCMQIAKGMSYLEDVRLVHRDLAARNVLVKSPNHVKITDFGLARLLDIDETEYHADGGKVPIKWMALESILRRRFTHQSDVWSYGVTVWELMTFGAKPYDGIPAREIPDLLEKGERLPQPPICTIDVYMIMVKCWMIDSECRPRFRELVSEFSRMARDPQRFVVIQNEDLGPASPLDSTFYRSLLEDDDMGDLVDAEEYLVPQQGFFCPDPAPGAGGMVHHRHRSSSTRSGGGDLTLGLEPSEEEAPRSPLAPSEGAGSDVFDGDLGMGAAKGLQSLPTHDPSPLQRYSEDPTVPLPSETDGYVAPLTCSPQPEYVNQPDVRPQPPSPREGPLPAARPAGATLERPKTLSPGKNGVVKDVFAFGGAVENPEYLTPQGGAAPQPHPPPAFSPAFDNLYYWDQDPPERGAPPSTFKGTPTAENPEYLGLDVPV

[15] = target: Glycogen synthase kinase-3 beta (Homo sapiens, UniProt P49841); experiment: Inhibition of GSK3-beta
[16] = target: T4, Inhibitor of nuclear factor kappa-B kinase subunit alpha (Homo sapiens, UniProt O15111); experiment: Inhibition of IKKalpha
T4 sequence (O15111 whole entry): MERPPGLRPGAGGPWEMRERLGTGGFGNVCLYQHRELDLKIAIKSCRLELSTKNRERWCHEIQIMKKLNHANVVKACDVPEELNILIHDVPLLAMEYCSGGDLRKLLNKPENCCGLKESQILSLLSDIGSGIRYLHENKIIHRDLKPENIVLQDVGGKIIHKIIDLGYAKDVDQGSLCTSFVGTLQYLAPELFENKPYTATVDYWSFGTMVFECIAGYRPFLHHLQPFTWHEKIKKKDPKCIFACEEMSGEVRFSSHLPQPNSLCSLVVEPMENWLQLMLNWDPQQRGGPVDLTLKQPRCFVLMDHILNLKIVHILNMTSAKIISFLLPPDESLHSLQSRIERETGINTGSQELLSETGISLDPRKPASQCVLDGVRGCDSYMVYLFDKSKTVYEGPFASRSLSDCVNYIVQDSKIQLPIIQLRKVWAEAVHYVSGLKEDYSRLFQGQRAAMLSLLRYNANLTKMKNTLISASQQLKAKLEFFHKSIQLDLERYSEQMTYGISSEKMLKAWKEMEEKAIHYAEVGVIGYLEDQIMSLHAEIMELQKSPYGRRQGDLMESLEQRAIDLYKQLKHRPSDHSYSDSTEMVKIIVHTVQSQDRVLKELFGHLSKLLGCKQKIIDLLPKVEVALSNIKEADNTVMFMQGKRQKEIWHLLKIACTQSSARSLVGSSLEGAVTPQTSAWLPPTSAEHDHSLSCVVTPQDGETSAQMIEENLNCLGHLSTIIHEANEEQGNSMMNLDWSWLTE

[17] = target: T5, Inhibitor of nuclear factor kappa-B kinase subunit beta (Homo sapiens, UniProt O14920); experiment: Inhibition of IKK-beta
T5 sequence (O14920 whole entry): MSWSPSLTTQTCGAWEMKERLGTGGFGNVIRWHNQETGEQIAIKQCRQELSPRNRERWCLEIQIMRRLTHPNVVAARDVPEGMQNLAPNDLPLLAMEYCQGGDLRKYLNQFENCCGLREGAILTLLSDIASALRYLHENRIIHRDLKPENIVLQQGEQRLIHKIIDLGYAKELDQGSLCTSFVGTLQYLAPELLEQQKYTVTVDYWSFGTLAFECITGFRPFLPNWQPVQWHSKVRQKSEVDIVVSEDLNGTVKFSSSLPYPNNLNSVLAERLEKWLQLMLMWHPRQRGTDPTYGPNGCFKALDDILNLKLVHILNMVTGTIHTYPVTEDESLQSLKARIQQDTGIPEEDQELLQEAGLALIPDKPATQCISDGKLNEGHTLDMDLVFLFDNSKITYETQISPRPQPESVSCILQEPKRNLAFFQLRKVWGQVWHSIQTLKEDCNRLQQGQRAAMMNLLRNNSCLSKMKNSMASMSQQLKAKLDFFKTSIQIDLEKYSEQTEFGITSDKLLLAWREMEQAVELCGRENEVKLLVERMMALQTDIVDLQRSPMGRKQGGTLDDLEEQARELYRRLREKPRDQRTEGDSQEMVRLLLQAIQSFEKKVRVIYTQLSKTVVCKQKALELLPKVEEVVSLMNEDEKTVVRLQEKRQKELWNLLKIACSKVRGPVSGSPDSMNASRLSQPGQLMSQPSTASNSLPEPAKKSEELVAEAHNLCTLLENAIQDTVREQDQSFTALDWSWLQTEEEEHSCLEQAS

[18] = target: Mitogen-activated protein kinase kinase kinase 11 (Homo sapiens, UniProt Q16584); experiment: Inhibition of MLK3
Sequence of Mitogen-activated protein kinase kinase kinase 11 (Q16584 whole entry): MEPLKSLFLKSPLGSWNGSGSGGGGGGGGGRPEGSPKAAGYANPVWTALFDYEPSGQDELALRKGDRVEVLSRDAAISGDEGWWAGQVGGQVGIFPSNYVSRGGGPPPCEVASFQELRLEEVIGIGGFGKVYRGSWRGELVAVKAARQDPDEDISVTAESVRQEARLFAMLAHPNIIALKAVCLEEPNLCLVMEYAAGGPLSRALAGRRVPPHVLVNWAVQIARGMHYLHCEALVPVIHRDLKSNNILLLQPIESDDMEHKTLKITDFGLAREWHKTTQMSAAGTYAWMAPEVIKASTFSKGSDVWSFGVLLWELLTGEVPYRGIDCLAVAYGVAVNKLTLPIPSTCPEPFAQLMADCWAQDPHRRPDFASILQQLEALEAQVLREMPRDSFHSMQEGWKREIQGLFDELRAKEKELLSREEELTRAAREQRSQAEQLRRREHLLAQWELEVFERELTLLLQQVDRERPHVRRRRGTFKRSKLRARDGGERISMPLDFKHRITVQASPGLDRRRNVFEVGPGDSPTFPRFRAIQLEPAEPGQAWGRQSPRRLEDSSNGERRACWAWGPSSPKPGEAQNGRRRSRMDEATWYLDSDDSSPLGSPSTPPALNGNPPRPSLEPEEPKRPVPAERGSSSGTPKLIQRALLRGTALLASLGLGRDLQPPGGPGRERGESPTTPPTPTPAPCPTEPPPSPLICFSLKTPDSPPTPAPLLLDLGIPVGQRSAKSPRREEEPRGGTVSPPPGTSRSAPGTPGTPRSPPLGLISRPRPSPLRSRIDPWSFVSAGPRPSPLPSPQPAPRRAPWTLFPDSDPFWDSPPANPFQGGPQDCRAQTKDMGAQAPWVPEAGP

[19] = target: Serine/threonine-protein kinase PLK1 (Homo sapiens, UniProt P53350); experiment: Inhibition of PLK1
[20] = target: Rho-associated protein kinase 1 (Homo sapiens, UniProt Q13464); experiment: Inhibition of ROCK1
[21] = target: T6, Serine/threonine-protein kinase Sgk1 (Homo sapiens, UniProt O00141); experiment: Inhibition of SGK1
T6 sequence (O00141 whole entry): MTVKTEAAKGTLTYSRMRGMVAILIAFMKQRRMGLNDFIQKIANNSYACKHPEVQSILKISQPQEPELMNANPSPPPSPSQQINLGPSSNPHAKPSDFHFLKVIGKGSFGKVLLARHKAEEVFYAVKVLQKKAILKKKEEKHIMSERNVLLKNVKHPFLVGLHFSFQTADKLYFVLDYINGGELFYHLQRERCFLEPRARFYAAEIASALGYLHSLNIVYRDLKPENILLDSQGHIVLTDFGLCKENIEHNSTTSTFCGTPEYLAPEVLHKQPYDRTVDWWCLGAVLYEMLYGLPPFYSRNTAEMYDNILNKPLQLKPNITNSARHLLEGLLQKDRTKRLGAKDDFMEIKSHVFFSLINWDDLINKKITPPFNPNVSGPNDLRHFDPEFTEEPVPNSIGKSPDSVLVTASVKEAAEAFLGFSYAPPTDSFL

[22] = target: Tyrosine-protein kinase Lck (Homo sapiens, UniProt P06239)

T1 sequence (P53779 whole entry, the tested form may be a part): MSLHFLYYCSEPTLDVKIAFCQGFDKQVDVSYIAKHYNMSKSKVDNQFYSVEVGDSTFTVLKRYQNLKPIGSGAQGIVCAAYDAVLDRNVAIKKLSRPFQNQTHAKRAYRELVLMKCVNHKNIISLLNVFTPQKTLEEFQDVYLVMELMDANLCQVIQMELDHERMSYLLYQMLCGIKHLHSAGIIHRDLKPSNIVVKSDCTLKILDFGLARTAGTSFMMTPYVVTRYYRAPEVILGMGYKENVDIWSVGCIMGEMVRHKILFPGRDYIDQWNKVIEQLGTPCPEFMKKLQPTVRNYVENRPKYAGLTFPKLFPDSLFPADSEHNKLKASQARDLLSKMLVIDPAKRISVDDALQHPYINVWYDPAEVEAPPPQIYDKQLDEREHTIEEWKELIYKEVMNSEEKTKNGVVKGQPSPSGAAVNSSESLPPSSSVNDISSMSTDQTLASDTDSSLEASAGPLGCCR
T2 sequence (Q16539 whole entry): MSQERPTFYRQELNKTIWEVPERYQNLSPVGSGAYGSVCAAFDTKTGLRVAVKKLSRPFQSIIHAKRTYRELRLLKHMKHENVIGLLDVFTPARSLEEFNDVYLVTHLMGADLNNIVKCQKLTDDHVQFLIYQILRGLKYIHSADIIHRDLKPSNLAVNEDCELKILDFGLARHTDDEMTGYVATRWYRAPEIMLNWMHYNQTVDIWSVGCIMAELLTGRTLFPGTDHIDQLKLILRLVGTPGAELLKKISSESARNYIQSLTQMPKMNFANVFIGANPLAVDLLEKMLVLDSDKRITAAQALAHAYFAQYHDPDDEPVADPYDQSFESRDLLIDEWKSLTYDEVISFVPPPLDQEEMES

IC50 [1] [µM]	IC50 [2] [µM]	IC50 [6] [µM]	SMILES	also measured
12.6	> 15.8		COc1cc2c(cc1Cl)CCN=C2c1cccc(Cl)c1	
			O=C(NC1CCNCC1)c1cccc(-c2n[nH]c3cc(Nc4ccccc4Cl)ccc23)c1	IC50 [3]: 0.0794 µM; IC50 [4]: 0.00126 µM; IC50 [5]: 0.00398 µM
0.398		12.6	COc1cc2c(cc1Cl)C(c1cccc(Br)c1)=NCC2	
> 15.8	> 15.8		COc1cc2c(cc1Cl)CCN=C2c1ccc2ccccc2c1	
> 15.8	> 15.8		COc1cc2c(cc1Cl)CCN=C2c1cccc(F)c1	
6.31		> 15.8	COc1cc2c(cc1Cl)C(c1ccccc1)=NCC2	
6.31		> 15.8	COc1cc2c(cc1OC)C(c1ccc(Cl)c(Cl)c1)=NCC2	
2		> 15.8	COc1cc2c(cc1Cl)C(c1cccc(C)c1)=NCC2	
15.8	> 15.8		COc1cc2c(cc1Cl)CCN=C2c1ccc(Cl)c(Cl)c1	
> 15.8		> 15.8	COc1cc2c(cc1OC)C(c1ccc(Cl)cc1)=NCC2	
0.251		7.94	COc1cc2c(cc1Cl)C(c1cccc(Cl)c1)=NCC2	IC50 [7]: 1.26 µM; IC50 [8]: > 100 µM; IC50 [9]: 0.126 µM; IC50 [10]: > 100 µM; IC50 [11]: > 10 µM; IC50 [12]: > 10 µM; IC50 [13]: > 10 µM; IC50 [14]: > 10 µM; IC50 [15]: > 10 µM; IC50 [16]: > 10 µM; IC50 [17]: > 10 µM; IC50 [18]: > 10 µM; IC50 [19]: > 10 µM; IC50 [20]: > 10 µM; IC50 [21]: > 10 µM; IC50 [22]: > 10 µM
> 15.8		> 15.8	COc1cccc(C2=NCCc3cc(OC)c(OC)cc32)c1	
			COc1cc2c(cc1OC)C(c1cccc(Cl)c1)=NCC2	IC50 [4]: 10 µM
3.98		> 15.8	COc1cc2c(cc1Cl)C(c1cccc(F)c1)=NCC2	
1		> 15.8	COc1cc2c(cc1Cl)C(c1ccc3ccccc3c1)=NCC2	
> 15.8	> 15.8		COc1cc2c(cc1Cl)CCN=C2c1ccc(F)cc1	
10	> 15.8		COc1cc2c(cc1Cl)CCN=C2c1cccc(Br)c1	
5.01		> 15.8	COc1cc2c(cc1Cl)C(c1ccc(F)cc1)=NCC2	
0.316		7.94	COc1cc2c(cc1Cl)C(c1ccc(Cl)c(Cl)c1)=NCC2	IC50 [7]: 0.794 µM; IC50 [8]: 100 µM; IC50 [9]: 0.0501 µM; IC50 [10]: > 100 µM; IC50 [11]: > 10 µM; IC50 [12]: > 10 µM; IC50 [13]: > 10 µM; IC50 [14]: > 10 µM; IC50 [15]: > 10 µM; IC50 [16]: > 10 µM; IC50 [17]: > 10 µM; IC50 [18]: > 10 µM; IC50 [19]: > 10 µM; IC50 [20]: > 10 µM; IC50 [21]: > 10 µM
> 15.8		> 15.8	Clc1cccc(C2=NCCc3ccccc32)c1	
> 15.8	> 15.8		COc1cc2c(cc1Cl)CCN=C2c1ccccc1	
0.631		12.6	COc1cc2c(cc1Cl)C(c1cccc(Cl)c1F)=NCC2	
> 15.8	> 15.8		COc1cc2c(cc1OC)C(c1ccccc1)=NCC2	
> 15.8		> 15.8	CCC1=NCCc2cc(OC)c(Cl)cc21	
> 15.8		> 15.8	COc1cc2c(cc1Cl)C(Cc1ccccc1)=NCC2	
